MIC data for 1 compound are collected here from ChEMBL document CHEMBL4261608, “Design, synthesis and anti-mycobacterial activity evaluation of benzofuran-isatin hybrids” (Eur J Med Chem, 2018).

The assay relates to Mycobacterium tuberculosis. Put plainly: Antimycobacterial activity against ethambutol/isoniazid/rifampicin-resistant Mycobacterium tuberculosis incubated for 7 days by rapid direct susceptibility test. Conditions: 168 h. It is filed as functional.

For the compound `NNC(=O)c1ccncc1` [ISONIAZID], the MIC is more than 128 µg/mL.

A word on the MIC: it is the least concentration at which growth counts as inhibited.
